Reference: the supplement of paper PMC10307832

Experiments:
Assay in all cases: relative viability (nuclei count vs DMSO), 5 days (fraction); higher = more cells survive
[1] = compound: Nc1ccccc1NC(=O)c1ccc(CNC(=O)OCc2cccnc2)cc1 [Entinostat] + N=C(N)NC(=N)NCCc1ccccc1 [Phenformin] (partner 250 µM)
In short: (§1)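 For relative viability, nuclei counts in treated wells were divided by those in vehicle wells. Lung cancer cell lines had been pin-tool dosed in 1536-well plates the day after seeding and cultured for 5 days, then fixed and stained in one step (final 0.05% Triton X-100, 1% formaldehyde, 1 ug/ml Hoechst) and imaged at 4×. Doses were one drug alone or a fixed anchor-drug dose plus five library-drug doses (not always all listed) in √10 steps, and values are duplicate-plate medians.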

[2] = compound: CN1CCC(CNc2ccc3ncc(-c4cccc(OC(F)(F)F)c4)n3n2)CC1 [SGI-1776] + CCNC(=O)c1noc(-c2cc(C(C)C)c(O)cc2O)c1-c1ccc(CN2CCOCC2)cc1 [Luminespib] (partner 0.01 µM)
In short: as §1

[3] = compound: Nc1ccccc1NC(=O)c1ccc(CNC(=O)OCc2cccnc2)cc1 [Entinostat] + CCNC(=O)c1noc(-c2cc(C(C)C)c(O)cc2O)c1-c1ccc(CN2CCOCC2)cc1 [Luminespib] (partner 0.01 µM)
In short: as §1

[4] = compound: Nc1ccccc1NC(=O)c1ccc(CNC(=O)OCc2cccnc2)cc1 [Entinostat] + C[C@@H](Oc1cc(-c2cnn(C3CCNCC3)c2)cnc1N)c1c(Cl)ccc(F)c1Cl [Crizotinib] (partner 1 µM)
In short: as §1

Cell Line | relative viability ([1]; first compound 0.02 µM) | relative viability ([1]; first compound 0.06325 µM) | relative viability ([1]; first compound 0.2 µM) | relative viability ([1]; first compound 0.6325 µM) | relative viability ([1]; first compound 2 µM) | relative viability ([2]; first compound 0.08 µM) | relative viability ([2]; first compound 0.8 µM) | relative viability ([2]; first compound 2.53 µM) | relative viability ([2]; first compound 8 µM) | relative viability ([3]; first compound 0.02 µM) | relative viability ([3]; first compound 0.06325 µM) | relative viability ([3]; first compound 0.2 µM) | relative viability ([3]; first compound 0.6325 µM) | relative viability ([3]; first compound 2 µM) | relative viability ([4]; first compound 0.02 µM) | relative viability ([4]; first compound 0.06325 µM) | relative viability ([4]; first compound 0.2 µM) | relative viability ([4]; first compound 0.6325 µM) | relative viability ([4]; first compound 2 µM)
NCI-H358 | 0.335 | 0.546 | 0.506 | 0.245 | 0.108 | 0.729 | 0.506 | 0.432 | 0.315 | 0.48 | 0.484 | 0.407 | 0.238 | 0.159 | 0.545 | 0.519 | 0.463 | 0.209 | 0.0928
RERF-LC-KJ | 0.433 | 0.437 | 0.422 | 0.339 | 0.312 | 1.23 | 1.17 | 0.904 | 0.688 | 1.13 | 1.16 | 1.02 | 0.438 | 0.322 | 0.844 | 0.75 | 0.754 | 0.431 | 0.233
NCI-H1915 | 0.375 | 0.346 | 0.372 | 0.261 | 0.256 | 0.778 | 0.843 | 0.75 | 0.684 | 0.737 | 0.722 | 0.821 | 0.567 | 0.373 | 0.854 | 0.869 | 0.862 | 0.739 | 0.328
NCI-H647 | 0.54 | 0.555 | 0.405 | 0.158 | 0.0748 | 0.263 | 0.198 | 0.192 | 0.144 | 0.223 | 0.182 | 0.23 | 0.177 | 0.133 | 1.1 | 0.966 | 0.749 | 0.301 | 0.102
SK-LU-1 | 0.579 | 0.693 | 0.497 | 0.398 | 0.362 | 0.217 | 0.192 | 0.19 | 0.167 | 0.207 | 0.202 | 0.227 | 0.2 | 0.212 | 0.935 | 0.756 | 0.733 | 0.572 | 0.511
NCI-H441 | 0.679 | 1.03 | 0.757 | 0.397 | 0.184 | 0.379 | 0.294 | 0.312 | 0.239 | 0.401 | 0.34 | 0.29 | 0.245 | 0.176 | 0.715 | 0.744 | 0.523 | 0.215 | 0.181
COR-L 105 | 0.499 | 0.561 | 0.45 | 0.411 | 0.23 | 0.741 | 0.713 | 0.691 | 0.834 | 0.803 | 0.749 | 0.72 | 0.561 | 0.345 | 0.92 | 0.778 | 0.655 | 0.494 | 0.216
NCI-H2009 | 0.466 | 0.499 | 0.468 | 0.418 | 0.304 | 1.04 | 1.03 | 0.977 | 0.955 | 1.05 | 0.967 | 0.974 | 0.771 | 0.762 | 0.984 | 1.06 | 0.965 | 0.877 | 0.556
NCI-H1563 | 0.76 | 0.646 | 0.714 | 0.669 | 0.607 | 0.522 | 0.497 | 0.515 | 0.538 | 0.515 | 0.503 | 0.478 | 0.483 | 0.47 | 0.781 | 0.907 | 0.759 | 0.711 | 0.735
PC-14 | 0.761 | 0.61 | 0.662 | 0.309 | 0.076 | 0.154 | 0.138 | 0.126 | 0.129 | 0.135 | 0.256 | 0.151 | 0.143 | 0.114 | 0.849 | 0.928 | 0.916 | 0.37 | 0.159
NCI-H1703 | – | – | – | – | – | – | – | – | – | – | – | – | – | – | 0.674 | 0.786 | 0.884 | 0.415 | 0.358
NCI-H1944 | 0.193 | 0.182 | 0.168 | 0.13 | 0.142 | 0.871 | 0.67 | 0.669 | 0.618 | 0.73 | 0.625 | 0.397 | 0.329 | 0.183 | 0.971 | 0.756 | 0.629 | 0.344 | 0.249
EBC-1 | – | – | – | – | – | – | – | – | – | – | – | – | – | – | 0.177 | 0.191 | 0.215 | 0.202 | 0.159
HCC-366 | 0.578 | 0.61 | 0.582 | 0.451 | 0.186 | – | – | – | – | – | – | – | – | – | 0.447 | 0.407 | 0.283 | 0.0613 | 0.0249
A549 | 0.166 | 0.207 | 0.197 | 0.169 | 0.101 | – | – | – | – | – | – | – | – | – | 0.775 | 0.863 | 0.743 | 0.449 | 0.111
NCI-H1299 | – | – | – | – | – | – | – | – | – | – | – | – | – | – | 0.904 | 0.925 | 0.91 | 0.767 | 0.561
NCI-H1793 | 0.439 | 0.4 | 0.368 | 0.302 | 0.316 | 0.217 | 0.163 | 0.286 | 0.161 | 0.224 | 0.157 | 0.177 | 0.171 | 0.161 | – | – | – | – | –
NCI-H1623 | 0.663 | 0.623 | 0.556 | 0.489 | 0.422 | 0.468 | 0.612 | 0.576 | 0.506 | 0.632 | 0.554 | 0.443 | 0.472 | 0.279 | – | – | – | – | –
HCC-78 | 0.819 | 0.751 | 0.55 | 0.329 | 0.27 | – | – | – | – | – | – | – | – | – | 0.37 | 0.293 | 0.234 | 0.163 | 0.141
NCI-H1395 | 0.441 | 0.494 | 0.421 | 0.417 | 0.416 | 0.768 | 0.772 | 0.573 | 0.414 | 0.711 | 0.663 | 0.634 | 0.659 | 0.6 | – | – | – | – | –
NCI-H522 | 0.69 | 0.572 | 0.695 | 0.801 | 0.577 | 1.16 | 1.1 | 1.09 | 0.972 | 1.21 | 1.33 | 1.38 | 1.1 | 0.649 | – | – | – | – | –
Calu-6 | – | – | – | – | – | – | – | – | – | – | – | – | – | – | 0.738 | 0.713 | 0.755 | 0.494 | 0.317
